Measurements published in ChEMBL document CHEMBL1201862, “PubChem BioAssay data set” (2004).
Blank lines part the entries; values can stand above or below the compound they belong to. Active and inactive are the calls of the source. Unless noted, no cut-off for these calls is given here.

How the values were obtained:
[1] = molecular target: Short transient receptor potential channel 6 (Mus musculus, UniProt Q61143); assay: TRPC6 inhibition potency of TRPC4 inhibitor analogs, dose response, selectivity assay for selective TRPC4 inhibitor project, HEK293 cells, membrane potential dye, IC50 (AID 492987); format: functional, cell-based
[2] = molecular target: T1, Short transient receptor potential channel 4 (Mus musculus, UniProt Q9QUQ5); assay: SAR Analysis for the identification of selective inhibits of the transient receptor potential cation channel C4 (TRPC4): Automated Electrophysiology_2. [Related pubchem assays (depositor defined):AID2256]; format: functional
T1 sequence (Q9QUQ5 whole entry): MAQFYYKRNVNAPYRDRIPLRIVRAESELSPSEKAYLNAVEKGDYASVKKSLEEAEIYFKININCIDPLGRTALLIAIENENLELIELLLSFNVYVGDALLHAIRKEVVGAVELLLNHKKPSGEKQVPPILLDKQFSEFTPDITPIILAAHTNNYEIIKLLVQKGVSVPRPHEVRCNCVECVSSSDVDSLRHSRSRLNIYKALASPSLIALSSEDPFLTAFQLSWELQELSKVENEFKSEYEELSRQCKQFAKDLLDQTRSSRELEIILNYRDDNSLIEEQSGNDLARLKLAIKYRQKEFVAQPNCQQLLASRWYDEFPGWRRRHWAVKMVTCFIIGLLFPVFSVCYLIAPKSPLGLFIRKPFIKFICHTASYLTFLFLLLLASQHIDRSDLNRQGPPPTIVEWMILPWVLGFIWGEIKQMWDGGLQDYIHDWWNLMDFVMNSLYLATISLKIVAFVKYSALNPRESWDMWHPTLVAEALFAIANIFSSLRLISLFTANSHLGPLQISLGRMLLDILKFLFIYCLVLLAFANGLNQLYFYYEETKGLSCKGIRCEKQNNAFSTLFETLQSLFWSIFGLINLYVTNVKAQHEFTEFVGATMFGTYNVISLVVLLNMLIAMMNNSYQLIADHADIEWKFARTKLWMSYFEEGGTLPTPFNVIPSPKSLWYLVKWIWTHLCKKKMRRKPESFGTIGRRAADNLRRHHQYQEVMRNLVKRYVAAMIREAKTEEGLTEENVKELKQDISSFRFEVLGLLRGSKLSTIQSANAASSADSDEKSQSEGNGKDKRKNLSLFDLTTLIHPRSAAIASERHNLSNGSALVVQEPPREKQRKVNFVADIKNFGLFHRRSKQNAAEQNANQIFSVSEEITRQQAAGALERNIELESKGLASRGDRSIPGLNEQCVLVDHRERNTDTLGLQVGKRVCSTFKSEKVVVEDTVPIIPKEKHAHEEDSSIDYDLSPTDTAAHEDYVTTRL

[3] = molecular target: T1, Short transient receptor potential channel 4; assay: TRPC4 inhibition under acetylcholine activation, SAR follow-up, cell-based, acetylcholine stimulus, HEK293 TRPC4, Fluo-4 (AID 492996); format: functional
[4] = molecular target: T1, Short transient receptor potential channel 4; assay: TRPC4 inhibitor concentration-response, dose response, cell-based, HEK293 TRPC4/mu-opioid, DAMGO stimulus, Fluo-4 (AID 492994); format: functional
[5] = molecular target: T1, Short transient receptor potential channel 4; assay: SAR Analysis for the identification of selective inhibitors of the transient receptor potential cation channel C4 (TRPC4): TRPC4 Serotonin Receptor CRC MPD assay. [Related pubchem assays (depositor defined):AID2247, AID2256]; format: functional
Escherichia coli = assay: microbe, parasite or virus in culture
Trypsin = Trypsin (Sus scrofa, UniProt P00761); assay: porcine trypsin inhibitors, dose response, selectivity assay for Rce1 protease inhibitor project, biochemical, quenched peptide fluorescence, cherry-pick (AID 488789)
CAAX prenyl protease 2 = CAAX prenyl protease 2 (Homo sapiens, UniProt Q9Y256); assay: human Rce1 protease inhibitors, dose response, biochemical, yeast membranes, quenched-peptide fluorescence, cherry-pick (AID 588849)
[6] = molecular target: Voltage-gated inwardly rectifying potassium channel KCNH2 (Homo sapiens, UniProt Q12809); conditions: Potency;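 note: confirmatory quantitative high-throughput screen measuring inhibition of hERG channel activity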
Chain of Voltage-gated inwardly rectifying potassium channel KCNH2 (Q12809 whole entry): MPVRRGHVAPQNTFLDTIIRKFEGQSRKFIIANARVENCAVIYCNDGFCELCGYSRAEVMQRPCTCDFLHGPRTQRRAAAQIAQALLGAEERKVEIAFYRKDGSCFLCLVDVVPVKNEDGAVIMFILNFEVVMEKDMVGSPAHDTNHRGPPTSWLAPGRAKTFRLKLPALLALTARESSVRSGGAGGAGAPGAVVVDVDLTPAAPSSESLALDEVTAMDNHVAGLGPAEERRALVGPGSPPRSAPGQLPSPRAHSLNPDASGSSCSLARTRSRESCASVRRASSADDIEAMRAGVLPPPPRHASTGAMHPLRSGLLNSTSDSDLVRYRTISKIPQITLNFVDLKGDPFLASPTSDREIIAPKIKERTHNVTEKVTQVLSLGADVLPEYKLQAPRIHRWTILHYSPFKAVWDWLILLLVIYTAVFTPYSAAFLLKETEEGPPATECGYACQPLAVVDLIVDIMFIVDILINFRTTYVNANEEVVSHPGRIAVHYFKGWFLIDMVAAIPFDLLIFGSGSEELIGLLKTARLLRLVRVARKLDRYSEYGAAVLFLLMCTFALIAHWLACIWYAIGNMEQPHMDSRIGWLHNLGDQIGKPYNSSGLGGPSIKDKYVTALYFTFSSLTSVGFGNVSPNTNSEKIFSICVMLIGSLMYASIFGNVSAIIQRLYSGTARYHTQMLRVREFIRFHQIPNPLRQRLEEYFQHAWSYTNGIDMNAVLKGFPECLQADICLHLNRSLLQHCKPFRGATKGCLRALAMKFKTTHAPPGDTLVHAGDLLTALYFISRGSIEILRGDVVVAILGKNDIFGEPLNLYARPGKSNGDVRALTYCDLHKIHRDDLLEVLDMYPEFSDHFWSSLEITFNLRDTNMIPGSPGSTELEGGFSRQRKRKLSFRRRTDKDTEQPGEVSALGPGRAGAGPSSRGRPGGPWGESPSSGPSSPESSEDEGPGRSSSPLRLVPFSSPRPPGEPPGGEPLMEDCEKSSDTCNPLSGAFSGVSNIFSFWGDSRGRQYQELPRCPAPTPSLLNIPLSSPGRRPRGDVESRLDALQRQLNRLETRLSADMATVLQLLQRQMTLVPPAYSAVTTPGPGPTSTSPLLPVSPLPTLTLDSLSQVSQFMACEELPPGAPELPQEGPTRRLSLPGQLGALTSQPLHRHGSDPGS

Chain of Trypsin (P00761 whole entry): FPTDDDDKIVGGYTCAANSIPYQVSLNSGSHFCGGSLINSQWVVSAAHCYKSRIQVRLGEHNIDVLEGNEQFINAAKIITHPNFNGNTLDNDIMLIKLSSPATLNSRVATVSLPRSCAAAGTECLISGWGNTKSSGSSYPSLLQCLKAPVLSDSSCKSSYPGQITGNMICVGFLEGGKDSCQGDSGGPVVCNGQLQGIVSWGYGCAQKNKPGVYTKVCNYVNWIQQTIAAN
Chain of Short transient receptor potential channel 6 (Q61143 whole entry): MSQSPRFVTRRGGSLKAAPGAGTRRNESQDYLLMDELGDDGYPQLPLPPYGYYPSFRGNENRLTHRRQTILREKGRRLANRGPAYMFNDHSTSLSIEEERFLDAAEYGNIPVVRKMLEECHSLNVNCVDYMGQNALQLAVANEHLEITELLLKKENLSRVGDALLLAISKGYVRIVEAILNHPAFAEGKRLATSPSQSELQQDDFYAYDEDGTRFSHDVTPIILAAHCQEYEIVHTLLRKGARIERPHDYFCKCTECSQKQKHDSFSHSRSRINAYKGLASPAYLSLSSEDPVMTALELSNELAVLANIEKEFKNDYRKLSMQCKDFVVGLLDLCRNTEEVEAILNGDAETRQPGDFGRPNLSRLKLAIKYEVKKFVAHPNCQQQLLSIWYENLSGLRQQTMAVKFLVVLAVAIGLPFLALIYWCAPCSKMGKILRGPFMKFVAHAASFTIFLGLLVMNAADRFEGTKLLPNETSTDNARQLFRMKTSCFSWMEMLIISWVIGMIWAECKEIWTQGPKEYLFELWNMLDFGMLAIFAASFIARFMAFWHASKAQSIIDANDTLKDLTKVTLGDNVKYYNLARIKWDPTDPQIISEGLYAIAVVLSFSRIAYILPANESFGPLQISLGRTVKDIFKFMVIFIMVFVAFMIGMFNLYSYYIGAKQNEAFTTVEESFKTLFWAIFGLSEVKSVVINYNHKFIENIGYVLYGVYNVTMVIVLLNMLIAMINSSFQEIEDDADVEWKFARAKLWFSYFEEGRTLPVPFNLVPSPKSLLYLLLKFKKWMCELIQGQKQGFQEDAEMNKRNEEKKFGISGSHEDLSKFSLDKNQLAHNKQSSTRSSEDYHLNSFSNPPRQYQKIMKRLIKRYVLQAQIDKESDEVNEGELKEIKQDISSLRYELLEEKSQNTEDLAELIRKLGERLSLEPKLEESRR
Chain of CAAX prenyl protease 2 (Q9Y256 whole entry): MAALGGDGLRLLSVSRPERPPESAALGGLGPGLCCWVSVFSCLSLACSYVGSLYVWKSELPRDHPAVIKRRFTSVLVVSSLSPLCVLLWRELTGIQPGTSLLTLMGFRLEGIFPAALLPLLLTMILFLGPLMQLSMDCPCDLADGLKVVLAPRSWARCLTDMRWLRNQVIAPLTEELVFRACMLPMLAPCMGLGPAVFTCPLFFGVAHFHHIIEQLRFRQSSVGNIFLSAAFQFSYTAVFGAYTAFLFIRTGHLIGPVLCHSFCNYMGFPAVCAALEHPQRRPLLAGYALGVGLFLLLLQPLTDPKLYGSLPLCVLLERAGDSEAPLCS

IC50 [1]: 7.76 µM (active) | IC50 [2]: 3.94 µM (active) | IC50 [3]: 17.4 µM (active) | IC50 [4]: 0.93 µM (active) | IC50 [5]: 1.41 µM (active)
Compound: Cc1cc(N2CCCC2)nc2ccc(F)cc12

Compound: COC(=O)c1ccc(Cl)cc1NC(=O)/C=C/c1ccc(C)o1
AC50 (Escherichia coli): 83 µM (active)

AC50 (Trypsin): 32.4 µM (active) | AC50 (CAAX prenyl protease 2): > 100 µM (inactive)
Compound: CC(=O)NN1C(=O)c2ccccc2NC1c1ccoc1 (centres undefined)

Compound: C=CCN1CC[C@]23c4c5ccc(O)c4O[C@@H]2/C(=N/N=C2\CC[C@@]4(O)C6Cc7ccc(O)c8c7[C@@]4(CCN6CC=C)[C@@H]2O8)CC[C@@]3(O)C1C5
AC50 [6]: 20 µM (inconclusive)
